From patent publication EP0409227A2, “Pyrimidine nucleosides, their preparation and pharmaceutical preparations” (MATTHES, Eckart, Dr., priority 1989, dated 1991) come the findings set out here.

The test system of data set [1] is HBsAg-Sekretion von Hep G2 (2.2.15)-Zellen. Nature of the data set: Inhibition of HBsAg secretion of Hep G2 (2.2.15) cells (solid-phase radioimmunoassay of the medium). Format: cell-based, HBV. On the procedure:
(§1) Die Testung der antiviralen Wirksamkeit der Nucleoside auf zelluärer Ebene erfolgte an einer menschlichen Hepatoblastom-Zellinie, die mit dem HBV-Genom tranfiziert wurde und sowohl das Oberflächenantigen des Virus (HBsAg) als auch die HBV-DNA permanent produziert und infektiöse Viruspartikel in das Medium abgibt (Hep G2-Zellen, Klon 2.2.15, Sells et al. Proc.Natl.Acad. Sci. 84, 1005 (1987)). Die Zellen (5x10⁵/ml) wurden in RPMI 1640-Medium mit 2 mM Glutamin und 10% fetalem Kälberserum allein oder zusammen mit den Nucleosid-Analoga für 4 Tage inkubiert, danach wurden den Ansätzen für 24 Stunden ³H-Thymidin bzw. ³H-Desoxyadenosin (3 µCi/ml) zugesetzt, die Zellen abzentrifugiert und darin die säureunlösliche Radioaktivität und damit der Einfluß auf die DNA-Synthese bestimmt. Im Inkubationsmedium wurde das HBsAg durch Festphasenradioimmunoassay (Travenol-Genentech Diagnostics, Cambridge, MA) entsprechend den Instruktionen des Herstellers ermittelt. Die Tabelle 4 faßt die Ergebnisse zusammen, die belegen, daß die getesteten Verbindungen hochwirksame und selektive Hemmstoffe der HBV-Vermehrung sind.

For a further data set, the system named is Hep G2 (2.2.15)-Zellen. Put plainly: DNA synthesis of Hep G2 (2.2.15) cells (acid-insoluble radioactivity after 3H-thymidine or 3H-deoxyadenosine). The format is cell-based, menschlichen. As to conditions: 4 days, then 24 h label, mean ± SD of five experiments. The protocol:
as §1

Another data set concerns MT4 Zellen. Put plainly: Cytotoxicity: inhibition of proliferation of MT4 cells. Format: cell-based. On the procedure: (§2) Unter dem Aspekt einer möglichen Anwendung der Verbindungen am Menschen wurden ihre antiproliferativen Wirkungen an menschlichen Zellkulturen wie früher beschrieben getestet (E. Matthes et al. Biochem.Biophys.Res.Commun. 153, 825 (1988)). Dabei zeigte sich, daß z.B. 2′,3′-Didesoxy-3-fluor-5-methylcytidin gegenüber der T-Zellinie MT4 eine CD₅₀ von 190 µM aufweist. In einem weiteren Test, in dem eine mögliche Wachstumshemmung koloniebildender Zellen des Knochenmarks der Maus (CFU-GM) untersucht wurde (E. Matthes et al. Biochem.Biophys.Res.Commun. 165, 488 (1989), erwies sich diese Verbindung ebenfalls als kaum proliferationshemmend (CD₅₀ > 500 µM). Die Wirkung weiterer Verbindungen auf die Proliferation von MT4-Zellen ist in Tabelle 3 zusammengefaßt. Tabelle 3

For a further data set, the target named is T1, HBV-Polymerase (Hepatitis B virus genotype D subtype ayw, UniProt P03156).
T1 construct: Es wurde zunächst die Hemmbarkeit der HBV-assoziierten Polymerase; host or cells: virus-associated endogenous polymerase
T1 sequence (P03156 whole entry): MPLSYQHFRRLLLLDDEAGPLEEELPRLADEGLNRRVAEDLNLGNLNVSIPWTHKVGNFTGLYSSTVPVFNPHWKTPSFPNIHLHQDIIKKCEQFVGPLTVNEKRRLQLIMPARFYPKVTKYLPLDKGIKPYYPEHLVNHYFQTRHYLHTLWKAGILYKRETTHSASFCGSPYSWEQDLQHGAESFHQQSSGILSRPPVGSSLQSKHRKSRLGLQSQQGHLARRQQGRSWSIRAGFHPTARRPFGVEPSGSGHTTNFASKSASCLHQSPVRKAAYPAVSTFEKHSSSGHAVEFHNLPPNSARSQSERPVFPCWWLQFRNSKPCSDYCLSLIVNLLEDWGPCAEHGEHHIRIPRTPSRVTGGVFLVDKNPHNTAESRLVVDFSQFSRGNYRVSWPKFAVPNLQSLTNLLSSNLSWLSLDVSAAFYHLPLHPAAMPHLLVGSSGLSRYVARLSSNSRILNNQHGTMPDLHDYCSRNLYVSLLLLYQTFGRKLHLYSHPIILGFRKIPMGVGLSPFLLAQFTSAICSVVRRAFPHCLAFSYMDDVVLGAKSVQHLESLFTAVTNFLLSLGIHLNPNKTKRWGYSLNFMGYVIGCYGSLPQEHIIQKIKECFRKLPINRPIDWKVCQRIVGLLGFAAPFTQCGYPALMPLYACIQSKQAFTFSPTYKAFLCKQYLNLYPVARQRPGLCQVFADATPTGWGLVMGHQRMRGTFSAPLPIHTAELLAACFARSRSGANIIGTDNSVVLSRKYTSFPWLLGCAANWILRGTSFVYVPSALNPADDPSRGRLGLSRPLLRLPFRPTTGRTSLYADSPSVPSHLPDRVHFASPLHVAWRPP
Nature of the data set: Inhibition of HBV polymerase activity by nucleoside triphosphate analogues (method of Kaplan et al.). The format is biochemical. As to conditions: 50 % inhibition of HBV polymerase activity; 3 h incubation at 37 °C; read-out: ID₅₀. From the text: Das Hepatitis B Virus (HBV) besitzt eine zirkuläre, partiell doppelsträngige DNA, welche nach Infektion einer Leberzelle durch eine viruseigene Polymerase repliziert wird. Dieser Vorgang setzt jedoch die Synthese einer RNA durch eine zelluläre RNA-Polymerase voraus. Nur diese RNA-Matrize - im Zusammenhang mit der Replikation auch als Prägenom bezeichnet - kann von der HBV-Polymerase für die Synthese zunächst eines RNA-DNA Hybrids und dann der doppelsträngigen DNA benutzt werden. Damit verfügt die HBV-Polymerase über eine enzymatische Aktivität, die der einer reversen Transcriptase ähnelt (Will et al., J.Virology 61, 904 (1987)). Es wurde zunächst die Hemmbarkeit der HBV-assoziierten Polymerase durch die 5′-Triphosphate der erfindungsgemäßen Verbindungen untersucht. Dazu wurde die von Kaplan et al. (J.Virology 12, 995 (1973)) angegebene Methode zur Bestimmung der HBV-Polymerase benutzt, wobei die zu testenden Triphosphate den Ansätzen in verschiedenen Konzentrationen zugesetzt wurden. Die Hemmung der Enzymreaktion wurde nach 3-stündiger Inkubation bei 37 °C durch Vergleich mit einem Kontrollwert ermittelt und daraus die Konzentration der zugesetzten Analoga bestimmt, die zu einer 50 %igen Hemmung der HBV-Polymerase-Aktivität führt (ID₅₀). Tabelle 1 zeigt die Ergebnisse, wobei insbesondere 2′,3′-Didesoxy-3′-fluor-5-methylcytidin durch einen Wert ID₅₀ von 0,03 µM herausragt und damit zu den stärksten bisher bekannten Hemmstoffen der HBV-Polymerase zu rechnen ist. Tabelle 1

For data set [2], the system named is koloniebildender Zellen des Knochenmarks der Maus (CFU-GM). Put plainly: Growth inhibition of colony-forming bone marrow cells (CFU-GM). Format: cell-based. The following applies: mouse bone marrow. On the procedure: as §2
Setting [3] is: nucleoside 0,01 µM, 4 days + 24 h, mean ± SD of five experiments.
[4] abbreviates: nucleoside 0,1 µM, 4 days + 24 h, mean ± SD of five experiments.
Where [5] appears, read: nucleoside 0,01 µM, % of control without nucleoside (100).
Setting [6] is: nucleoside 0,1 µM, % of control without nucleoside (100).
The mark [7] stands for this setting: nucleoside 0,03 µM, 4 days + 24 h, mean ± SD of five experiments.
Where [8] appears, read: nucleoside 0,3 µM, 4 days + 24 h, mean ± SD of five experiments.
[9] abbreviates: nucleoside 0,03 µM, % of control without nucleoside (100).
The mark [10] stands for this setting: nucleoside 0,3 µM, % of control without nucleoside (100).
Setting [11] is: nucleoside 0,003 µM, 4 days + 24 h, mean ± SD of five experiments.
Setting [12] is: nucleoside 0,003 µM, % of control without nucleoside (100).
[13] abbreviates: nucleoside 1,0 µM, 4 days + 24 h, mean ± SD of five experiments.
Setting [14] is: nucleoside 1,0 µM, % of control without nucleoside (100).
[15] abbreviates: nucleoside 3,0 µM, 4 days + 24 h, mean ± SD of five experiments.
Setting [16] is: nucleoside 3,0 µM, % of control without nucleoside (100).
Setting [17] is: MT4 cells, 50 % inhibition of cell multiplication after 48 h.

The structures appear in SMILES notation. Bounds are passed on as bounds.

Take `Nc1ncnc2c1ncn2[C@H]1C=C[C@@H](CO)O1` [2′,3′-Didehydro-2′,3′-didesoxyadenosin, 9-(2,3-Didesoxy-β-D-glycero-pent-2-enofuranosyl)adenin]: the HBsAg in data set [1] (setting [3]) is reported as 12,4 ± 1,8 ng/ml; in data set [1] (setting [4]), 0,5 ± 0,2 ng/ml; in data set [1] (setting [5]), 71%; in data set [1] (setting [6]) it was 3%; in data set [1] (setting [7]), 4,7 ± 0,6 ng/ml; in data set [1] (setting [8]), < 0,1 ng/ml. For the same compound, the HBsAg is on record as 27% in data set [1] (setting [9]); less than 1% in data set [1] (setting [10]); 16,9 ± 2,6 ng/ml in data set [1] (setting [11]); 96% in data set [1] (setting [12]); < 0,1 ng/ml in data set [1] (setting [13]); less than 1% in data set [1] (setting [14]). The HBsAg is listed as < 0,1 ng/ml in data set [1] (setting [15]) and less than 1% in data set [1] (setting [16]). Further, the “^3H-DNA” value with Hep G2 (2.2.15)-Zellen (nucleoside 0,01 µM) stood at 17215 ± 1760 dpm/Kultur; in the data set on Hep G2 (2.2.15)-Zellen (nucleoside 0,1 µM), 16230 ± 1745 dpm/Kultur; with Hep G2 (2.2.15)-Zellen (nucleoside 0,03 µM), 18975 ± 1957 dpm/Kultur; in the data set with Hep G2 (2.2.15)-Zellen (nucleoside 0,3 µM) it was 19400 ± 1926 dpm/Kultur; with Hep G2 (2.2.15)-Zellen (nucleoside 0,003 µM), 19650 ± 1935 dpm/Kultur; in the data set with Hep G2 (2.2.15)-Zellen (nucleoside 1,0 µM) it was 9930 ± 1130 dpm/Kultur. In addition, the “^3H-DNA” value in the data set with Hep G2 (2.2.15)-Zellen (nucleoside 3,0 µM) turned out to be 4265 ± 555 dpm/Kultur. In addition, in the data set on MT4 Zellen (human, 48 h), the CD₅₀ is recorded as 48 µM.
As to `Cc1cn([C@H]2C[C@H](N)[C@@H](CO)O2)c(=O)nc1N` [2′,3′-Didesoxy-3′-amino-5-methylcytidin], the HBsAg in data set [1] (setting [3]) is 8,5 ± 1,3 ng/ml; in data set [1] (setting [4]) it was 4,8 ± 0,6 ng/ml; in data set [1] (setting [5]), 44%; in data set [1] (setting [6]) it was 25%; in data set [1] (setting [7]), 7,0 ± 1,1 ng/ml; in data set [1] (setting [8]) it was 3,2 ± 0,4 ng/ml. Also, the HBsAg in data set [1] (setting [9]) is reported as 36%; in data set [1] (setting [10]) it was 17%; in data set [1] (setting [11]) it was 13,9 ± 2,9 ng/ml; in data set [1] (setting [12]) it was 72%; in data set [1] (setting [13]), 0,3 ± 0,1 ng/ml; in data set [1] (setting [14]), 2%. In addition, the HBsAg in data set [1] (setting [15]) is < 0,1 ng/ml; in data set [1] (setting [16]), less than 1%. In addition, the “^3H-DNA” value with Hep G2 (2.2.15)-Zellen (nucleoside 0,01 µM) is on record as 15445 ± 1830 dpm/Kultur; with Hep G2 (2.2.15)-Zellen (nucleoside 0,1 µM), 14350 ± 1570 dpm/Kultur; in the data set with Hep G2 (2.2.15)-Zellen (nucleoside 0,03 µM), 14180 ± 1650 dpm/Kultur; in the data set on Hep G2 (2.2.15)-Zellen (nucleoside 0,3 µM), 12160 ± 1860 dpm/Kultur; in the data set with Hep G2 (2.2.15)-Zellen (nucleoside 0,003 µM), 16020 ± 1790 dpm/Kultur; with Hep G2 (2.2.15)-Zellen (nucleoside 1,0 µM) it was 8150 ± 1125 dpm/Kultur. For the same compound, the “^3H-DNA” value with Hep G2 (2.2.15)-Zellen (nucleoside 3,0 µM) worked out at 2100 ± 430 dpm/Kultur. In addition, the CD₅₀ in the data set on MT4 Zellen (human, 48 h) is 1,2 µM.
`Cc1cn([C@H]2C[C@H](F)[C@@H](CO)O2)c(=O)nc1N` [2′,3′-Didesoxy-3′-fluor-5-methylcytidin]: the IC50 at HBV-Polymerase was found to be 30 nM. The HBsAg was 7,0 ± 0,9 ng/ml in data set [1] (setting [3]); 0,4 ± 0,1 ng/ml in data set [1] (setting [4]); 36% in data set [1] (setting [5]); 2% in data set [1] (setting [6]); 2,4 ± 0,3 ng/ml in data set [1] (setting [7]); < 0,1 ng/ml in data set [1] (setting [8]). For the same compound, the HBsAg is given as 12% in data set [1] (setting [9]); less than 1% in data set [1] (setting [10]); 14,3 ± 2,4 ng/ml in data set [1] (setting [11]); 74% in data set [1] (setting [12]); < 0,1 ng/ml in data set [1] (setting [13]); less than 1% in data set [1] (setting [14]). The results for the HBsAg in data set [1] (setting [15]) and in data set [1] (setting [16]) were < 0,1 ng/ml and less than 1%, respectively. For the same compound, the “^3H-DNA” value in the data set with Hep G2 (2.2.15)-Zellen (nucleoside 0,01 µM) is 15060 ± 1895 dpm/Kultur; in the data set with Hep G2 (2.2.15)-Zellen (nucleoside 0,1 µM), 14350 ± 1520 dpm/Kultur; with Hep G2 (2.2.15)-Zellen (nucleoside 0,03 µM) it was 15580 ± 1910 dpm/Kultur; in the data set on Hep G2 (2.2.15)-Zellen (nucleoside 0,3 µM), 13175 ± 1975 dpm/Kultur; in the data set on Hep G2 (2.2.15)-Zellen (nucleoside 0,003 µM), 13270 ± 1650 dpm/Kultur; with Hep G2 (2.2.15)-Zellen (nucleoside 1,0 µM), 8295 ± 1010 dpm/Kultur. For the same compound, in the data set on Hep G2 (2.2.15)-Zellen (nucleoside 3,0 µM), the “^3H-DNA” value was determined as 2470 ± 295 dpm/Kultur. In addition, the values for the CD₅₀ (in the data set with MT4 Zellen (setting [17]); in data set [2]) were 190 µM and greater than 500 µM, respectively.
With `Cc1cn([C@H]2C[C@H](Cl)[C@@H](CO)O2)c(=O)nc1N` [2′,3′-Didesoxy-3′chlor-5-methylcytidin, 3′-Chlor-2′,3′-didesoxy-5-methylcytidin], the HBsAg in data set [1] (setting [3]) is reported as 9,6 ± 1,2 ng/ml; in data set [1] (setting [4]), 3,4 ± 0,4 ng/ml; in data set [1] (setting [5]), 50%; in data set [1] (setting [6]), 18%; in data set [1] (setting [7]) it was 7,1 ± 0,8 ng/ml; in data set [1] (setting [8]), 3,2 ± 0,5 ng/ml. The HBsAg in data set [1] (setting [9]) was 37%; in data set [1] (setting [10]), 17%; in data set [1] (setting [11]) it was 18,5 ± 2,6 ng/ml; in data set [1] (setting [12]), 96%; in data set [1] (setting [13]), 0,4 ± 0,1 ng/ml; in data set [1] (setting [14]) it was 2%. The HBsAg in data set [1] (setting [15]) was < 0,1 ng/ml; in data set [1] (setting [16]), less than 1%. In addition, the “^3H-DNA” value in the data set on Hep G2 (2.2.15)-Zellen (nucleoside 0,01 µM) was determined as 14820 ± 1550 dpm/Kultur; in the data set on Hep G2 (2.2.15)-Zellen (nucleoside 0,1 µM), 15185 ± 1735 dpm/Kultur; in the data set with Hep G2 (2.2.15)-Zellen (nucleoside 0,03 µM), 14370 ± 1620 dpm/Kultur; with Hep G2 (2.2.15)-Zellen (nucleoside 0,3 µM) it was 13895 ± 1540 dpm/Kultur; in the data set with Hep G2 (2.2.15)-Zellen (nucleoside 0,003 µM), 13450 ± 1465 dpm/Kultur; with Hep G2 (2.2.15)-Zellen (nucleoside 1,0 µM), 12270 ± 1590 dpm/Kultur. Besides, the “^3H-DNA” value in the data set with Hep G2 (2.2.15)-Zellen (nucleoside 3,0 µM) is given as 10065 ± 1855 dpm/Kultur. In the data set with MT4 Zellen (setting [17]), this compound returned a CD₅₀ of 625 µM.
